One test concerns Rattus norvegicus. Kind of test: In vivo stimulation of [3H]epibatidine binding to nicotinic acetylcholine receptor in rat prefrontal cortex relative to control. Format: functional.
For test [1], the target named is T1, Neuronal acetylcholine receptor; alpha4/beta2 (Rattus norvegicus) (UniProt P09483+P12390). Put plainly: Stimulation of [3H]epibatidine binding to alpha4beta2 nAChR in rat PC12 cells at 100 uM preincubated for 24 hrs followed by radioligand addition measured after 90 mins by liquid scintillation spectrometric analysis. Format: cell-based. The note with it: PC-12.

Test [2] concerns the target T2, Neuronal acetylcholine receptor; alpha4/beta2 (Rattus norvegicus, UniProt P09483+P12390). Put plainly: (§1) Displacement of [3H]epibatidine from alpha4beta2 nAChR in Sprague-Dawley rat brain cortical membrane after 3 hrs by liquid scintillation spectrometric analysis. It is filed as tissue-based. On the technique in general: Displacement assays read how much labelled ligand stays bound in the presence of the test substance.

The target of test [3] is T1, Neuronal acetylcholine receptor; alpha4/beta2 (Rattus norvegicus). The description is as §1. It is filed as tissue-based.
In test [4] the target is T2, Neuronal acetylcholine receptor; alpha4/beta2. Put plainly: Displacement of [3H]epibatidine from alpha4beta2 nAChR in Sprague-Dawley rat brain cortical membrane after 3 hrs. Format: tissue-based.
Test [5] addresses Sodium-dependent serotonin transporter (Rattus norvegicus, UniProt P31652). Put plainly: Displacement of [3H]-citalopram from SERT in Sprague-Dawley rat cortex, striatum and cerebellum-dissected brain after 60 mins by scintillation counting analysis. It is filed as tissue-based.

Structures are written as SMILES. Activity calls are given as the source filed them. No cut-off for these calls is given here.

This is an account of results in ChEMBL document CHEMBL3259585, “Molecular basis of the selective binding of MDMA enantiomers to the alpha4beta2 nicotinic receptor subtype: synthesis, pharmacological evaluation and mechanistic studies” (Eur J Med Chem, 2014).

T2 sequence (P09483 whole entry): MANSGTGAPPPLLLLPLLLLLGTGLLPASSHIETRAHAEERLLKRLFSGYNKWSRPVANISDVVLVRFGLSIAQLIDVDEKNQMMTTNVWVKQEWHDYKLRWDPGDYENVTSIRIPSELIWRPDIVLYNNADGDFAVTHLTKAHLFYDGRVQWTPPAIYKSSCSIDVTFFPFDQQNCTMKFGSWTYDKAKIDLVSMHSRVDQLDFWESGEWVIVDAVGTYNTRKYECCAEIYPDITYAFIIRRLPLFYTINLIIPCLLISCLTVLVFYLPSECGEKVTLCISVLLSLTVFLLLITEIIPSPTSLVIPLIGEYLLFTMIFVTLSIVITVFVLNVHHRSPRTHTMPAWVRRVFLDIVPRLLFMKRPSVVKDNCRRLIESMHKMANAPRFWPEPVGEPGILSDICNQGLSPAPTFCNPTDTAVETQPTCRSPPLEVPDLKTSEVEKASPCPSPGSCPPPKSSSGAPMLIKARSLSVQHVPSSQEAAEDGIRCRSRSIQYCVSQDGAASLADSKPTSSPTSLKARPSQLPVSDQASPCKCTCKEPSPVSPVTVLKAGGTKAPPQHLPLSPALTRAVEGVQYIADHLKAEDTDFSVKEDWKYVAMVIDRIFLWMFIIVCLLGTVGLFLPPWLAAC
T2 sequence (P12390 whole entry): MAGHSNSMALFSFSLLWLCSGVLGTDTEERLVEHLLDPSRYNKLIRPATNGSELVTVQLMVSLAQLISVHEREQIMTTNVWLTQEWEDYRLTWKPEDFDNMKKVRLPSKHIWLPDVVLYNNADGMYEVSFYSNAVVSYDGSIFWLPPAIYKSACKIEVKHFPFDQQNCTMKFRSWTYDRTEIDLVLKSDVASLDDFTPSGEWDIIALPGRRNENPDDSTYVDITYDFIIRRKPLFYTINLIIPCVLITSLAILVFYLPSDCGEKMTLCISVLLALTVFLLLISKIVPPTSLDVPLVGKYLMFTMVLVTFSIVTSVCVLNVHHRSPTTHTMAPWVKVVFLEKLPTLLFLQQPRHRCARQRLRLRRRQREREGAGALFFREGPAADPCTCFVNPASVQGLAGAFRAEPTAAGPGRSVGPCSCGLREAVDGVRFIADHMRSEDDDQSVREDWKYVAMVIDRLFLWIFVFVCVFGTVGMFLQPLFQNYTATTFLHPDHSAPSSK
Sodium-dependent serotonin transporter, sequence (P31652 whole entry): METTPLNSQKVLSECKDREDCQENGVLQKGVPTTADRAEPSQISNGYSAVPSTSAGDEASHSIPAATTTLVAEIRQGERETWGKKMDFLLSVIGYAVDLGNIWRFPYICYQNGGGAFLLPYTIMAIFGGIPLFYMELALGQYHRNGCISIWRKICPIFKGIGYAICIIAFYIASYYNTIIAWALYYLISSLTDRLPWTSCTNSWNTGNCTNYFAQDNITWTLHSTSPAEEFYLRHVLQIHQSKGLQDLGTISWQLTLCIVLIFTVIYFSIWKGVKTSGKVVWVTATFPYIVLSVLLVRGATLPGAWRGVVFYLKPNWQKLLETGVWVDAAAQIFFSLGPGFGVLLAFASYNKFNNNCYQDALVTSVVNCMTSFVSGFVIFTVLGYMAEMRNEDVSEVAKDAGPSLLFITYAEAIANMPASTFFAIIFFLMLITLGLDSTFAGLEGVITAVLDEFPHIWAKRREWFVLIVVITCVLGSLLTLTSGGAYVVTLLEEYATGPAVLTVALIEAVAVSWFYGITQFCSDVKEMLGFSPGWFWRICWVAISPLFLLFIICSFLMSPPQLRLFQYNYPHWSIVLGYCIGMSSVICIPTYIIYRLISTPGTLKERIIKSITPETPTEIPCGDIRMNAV

Take `CN1CCC[C@H]1c1cccnc1` [NICOTINE]: the Activity with Rattus norvegicus stood at 30%.

For orientation: IC50 means the midpoint of a concentration-inhibition curve. Read a high IC50 as weaker potency in that assay. Broadly, the Ki is a measure of affinity in units of concentration, obtained from inhibition or displacement. The low end stands for a stronger hold on the target, the high end for a looser hold on the target. Consider `CN[C@@H](C)Cc1ccc2c(c1)OCO2`, for which the outcome in test [1] was inactive. Moreover, the IC50 in test [2] was found to be 173 µM. The inhibition entry in test [3] is “Dose-dependent effect”. Also, the Ki in test [4] was determined as 8.21 µM.

With `CN[C@H](C)Cc1ccc2c(c1)OCO2`, the outcome in test [1] was Active. This compound registered an IC50 in test [2] of 13.4 µM. Further, the inhibition result in test [3] was “Dose-dependent effect”. The Ki in test [5] came to 24.5 µM; in test [4], 0.63 µM.

For the compound `CNC(C)Cc1ccc2c(c1)OCO2` (racemic) [MIDOMAFETAMINE], the result in test [1] was Active. The IC50 in test [2] was found to be 30.4 µM. Moreover, the inhibition result in test [3] was “Dose-dependent effect”. The same compound came in with an Activity with Rattus norvegicus of 35%. In test [4], this compound returned a Ki of 1.44 µM.
